Experimental data from ChEMBL document CHEMBL3797052 (Eur J Med Chem, 2016).

System: not listed separately
Test: Antiproliferative activity against human NCI-ADR-RES cells assessed as cell growth at 10^-5 M after 48 hrs by sulforhodamine B assay
Assay type: functional
Settings: read-out: Activity

SMILES | growth at 10 µM [%]
CNC(=O)c1cc(Oc2ccc3nc(NC(=O)Nc4ccc(Cl)cc4)sc3c2)ccn1 | 83.6
CNC(=O)c1cc(Oc2ccc3nc(NC(=O)c4cccc(F)n4)sc3c2)ccn1 | 88.8

System: HT-29
Test: Antiproliferative activity against human HT-29 cells assessed as cell growth at 10^-5 M after 48 hrs by sulforhodamine B assay
Assay type: functional
Settings: HT-29, 48 h, read-out: Activity

SMILES | growth at 10 µM [%]
CNC(=O)c1cc(Oc2ccc3nc(NC(=O)Nc4ccc(Cl)cc4)sc3c2)ccn1 | 68.8
CNC(=O)c1cc(Oc2ccc3nc(NC(=O)c4cccc(F)n4)sc3c2)ccn1 | 96

System: not listed separately
Test: Antiproliferative activity against human LOXIMVI cells assessed as cell growth at 10^-5 M after 48 hrs by sulforhodamine B assay
Assay type: functional
Settings: LOX IMVI, read-out: Activity

SMILES | growth at 10 µM [%]
CNC(=O)c1cc(Oc2ccc3nc(NC(=O)Nc4ccc(Cl)cc4)sc3c2)ccn1 | 51.6
CNC(=O)c1cc(Oc2ccc3nc(NC(=O)c4cccc(F)n4)sc3c2)ccn1 | 84.8

System: ACHN
Test: Antiproliferative activity against human ACHN cells assessed as cell growth at 10^-5 M after 48 hrs by sulforhodamine B assay
Assay type: functional
Settings: read-out: Activity

SMILES | growth at 10 µM [%]
CNC(=O)c1cc(Oc2ccc3nc(NC(=O)Nc4ccc(Cl)cc4)sc3c2)ccn1 | 64.9
CNC(=O)c1cc(Oc2ccc3nc(NC(=O)c4cccc(F)n4)sc3c2)ccn1 | 94.5

System: not listed separately
Test: Antiproliferative activity against human HCT116 cells assessed as cell growth at 10^-5 M after 48 hrs by sulforhodamine B assay
Assay type: functional
Settings: HCT-116, 48 h, read-out: Activity

SMILES | growth at 10 µM [%]
CNC(=O)c1cc(Oc2ccc3nc(NC(=O)Nc4ccc(Cl)cc4)sc3c2)ccn1 | 47.3
CNC(=O)c1cc(Oc2ccc3nc(NC(=O)c4cccc(F)n4)sc3c2)ccn1 | 80.5

System: not listed separately
Test: Antiproliferative activity against human UACC62 cells assessed as cell growth at 10^-5 M after 48 hrs by sulforhodamine B assay
Assay type: functional
Settings: UACC-62, 48 h, read-out: Activity

SMILES | growth at 10 µM [%]
CNC(=O)c1cc(Oc2ccc3nc(NC(=O)c4cccc(F)n4)sc3c2)ccn1 | 78

System: SR
Test: Antiproliferative activity against human SR cells assessed as cell growth at 10^-5 M after 48 hrs by sulforhodamine B assay
Assay type: functional
Settings: read-out: Activity

SMILES | growth at 10 µM [%]
CNC(=O)c1cc(Oc2ccc3nc(NC(=O)Nc4ccc(Cl)cc4)sc3c2)ccn1 | 42.7
CNC(=O)c1cc(Oc2ccc3nc(NC(=O)c4cccc(F)n4)sc3c2)ccn1 | 55.9

System: not listed separately
Test: Antiproliferative activity against human DU145 cells assessed as cell growth at 10^-5 M after 48 hrs by sulforhodamine B assay
Assay type: functional
Settings: DU-145, 48 h, read-out: Activity

SMILES | growth at 10 µM [%]
CNC(=O)c1cc(Oc2ccc3nc(NC(=O)Nc4ccc(Cl)cc4)sc3c2)ccn1 | 53.2
CNC(=O)c1cc(Oc2ccc3nc(NC(=O)c4cccc(F)n4)sc3c2)ccn1 | 99.2

System: not listed separately
Test: Antiproliferative activity against human SNB19 cells assessed as cell growth at 10^-5 M after 48 hrs by sulforhodamine B assay
Assay type: functional
Settings: SNB-19, 48 h, read-out: Activity

SMILES | growth at 10 µM [%]
CNC(=O)c1cc(Oc2ccc3nc(NC(=O)Nc4ccc(Cl)cc4)sc3c2)ccn1 | 59.3
CNC(=O)c1cc(Oc2ccc3nc(NC(=O)c4cccc(F)n4)sc3c2)ccn1 | 88.6

System: not listed separately
Test: Antiproliferative activity against human RXF393 cells assessed as cell growth at 10^-5 M after 48 hrs by sulforhodamine B assay
Assay type: functional
Settings: RXF 393, 48 h, read-out: Activity

SMILES | growth at 10 µM [%]
CNC(=O)c1cc(Oc2ccc3nc(NC(=O)Nc4ccc(Cl)cc4)sc3c2)ccn1 | 50.8
CNC(=O)c1cc(Oc2ccc3nc(NC(=O)c4cccc(F)n4)sc3c2)ccn1 | 101

System: CCRF-CEM
Test: Antiproliferative activity against human CCRF-CEM cells assessed as cell growth at 10^-5 M after 48 hrs by sulforhodamine B assay
Assay type: functional
Settings: read-out: Activity

SMILES | growth at 10 µM [%]
CNC(=O)c1cc(Oc2ccc3nc(NC(=O)Nc4ccc(Cl)cc4)sc3c2)ccn1 | 83.2
CNC(=O)c1cc(Oc2ccc3nc(NC(=O)c4cccc(F)n4)sc3c2)ccn1 | 64.7

System: not listed separately
Test: Antiproliferative activity against human HCC2998 cells assessed as cell growth at 10^-5 M after 48 hrs by sulforhodamine B assay
Assay type: functional
Settings: HCC 2998, 48 h, read-out: Activity

SMILES | growth at 10 µM [%]
CNC(=O)c1cc(Oc2ccc3nc(NC(=O)Nc4ccc(Cl)cc4)sc3c2)ccn1 | 86.5
CNC(=O)c1cc(Oc2ccc3nc(NC(=O)c4cccc(F)n4)sc3c2)ccn1 | 114

System: not listed separately
Test: Antiproliferative activity against human SF268 cells assessed as cell growth at 10^-5 M after 48 hrs by sulforhodamine B assay
Assay type: functional
Settings: SF-268, 48 h, read-out: Activity

SMILES | growth at 10 µM [%]
CNC(=O)c1cc(Oc2ccc3nc(NC(=O)Nc4ccc(Cl)cc4)sc3c2)ccn1 | 56.2
CNC(=O)c1cc(Oc2ccc3nc(NC(=O)c4cccc(F)n4)sc3c2)ccn1 | 89.6

System: not listed separately
Test: Antiproliferative activity against human SW620 cells assessed as cell growth at 10^-5 M after 48 hrs by sulforhodamine B assay
Assay type: functional
Settings: SW-620, 48 h, read-out: Activity

SMILES | growth at 10 µM [%]
CNC(=O)c1cc(Oc2ccc3nc(NC(=O)Nc4ccc(Cl)cc4)sc3c2)ccn1 | 101
CNC(=O)c1cc(Oc2ccc3nc(NC(=O)c4cccc(F)n4)sc3c2)ccn1 | 105

System: not listed separately
Test: Antiproliferative activity against human PC3 cells assessed as cell growth at 10^-5 M after 48 hrs by sulforhodamine B assay
Assay type: functional
Settings: PC-3, 48 h, read-out: Activity

SMILES | growth at 10 µM [%]
CNC(=O)c1cc(Oc2ccc3nc(NC(=O)Nc4ccc(Cl)cc4)sc3c2)ccn1 | 66
CNC(=O)c1cc(Oc2ccc3nc(NC(=O)c4cccc(F)n4)sc3c2)ccn1 | 73

System: not listed separately
Test: Antiproliferative activity against human SF539 cells assessed as cell growth at 10^-5 M after 48 hrs by sulforhodamine B assay
Assay type: functional
Settings: SF-539, 48 h, read-out: Activity

SMILES | growth at 10 µM [%]
CNC(=O)c1cc(Oc2ccc3nc(NC(=O)Nc4ccc(Cl)cc4)sc3c2)ccn1 | 83.5
CNC(=O)c1cc(Oc2ccc3nc(NC(=O)c4cccc(F)n4)sc3c2)ccn1 | 96.6

System: EKVX
Test: Antiproliferative activity against human EKVX cells assessed as cell growth at 10^-5 M after 48 hrs by sulforhodamine B assay
Assay type: functional
Settings: read-out: Activity

SMILES | growth at 10 µM [%]
CNC(=O)c1cc(Oc2ccc3nc(NC(=O)Nc4ccc(Cl)cc4)sc3c2)ccn1 | 53.8
CNC(=O)c1cc(Oc2ccc3nc(NC(=O)c4cccc(F)n4)sc3c2)ccn1 | 90

System: NCI-H322M
Test: Antiproliferative activity against human NCI-H322M cells assessed as cell growth at 10^-5 M after 48 hrs by sulforhodamine B assay
Assay type: functional
Settings: read-out: Activity

SMILES | growth at 10 µM [%]
CNC(=O)c1cc(Oc2ccc3nc(NC(=O)Nc4ccc(Cl)cc4)sc3c2)ccn1 | 66.8
CNC(=O)c1cc(Oc2ccc3nc(NC(=O)c4cccc(F)n4)sc3c2)ccn1 | 92.8

System: not listed separately
Test: Antiproliferative activity against human HL-60(TB) cells assessed as cell growth at 10^-5 M after 48 hrs by sulforhodamine B assay
Assay type: functional
Settings: HL-60, 48 h, read-out: Activity

SMILES | growth at 10 µM [%]
CNC(=O)c1cc(Oc2ccc3nc(NC(=O)Nc4ccc(Cl)cc4)sc3c2)ccn1 | 98.9
CNC(=O)c1cc(Oc2ccc3nc(NC(=O)c4cccc(F)n4)sc3c2)ccn1 | 78.2

System: MDA-MB-435
Test: Antiproliferative activity against human MDA-MB-435 cells assessed as cell growth at 10^-5 M after 48 hrs by sulforhodamine B assay
Assay type: functional
Settings: MDA-MB-435, 48 h, read-out: Activity

SMILES | growth at 10 µM [%]
CNC(=O)c1cc(Oc2ccc3nc(NC(=O)Nc4ccc(Cl)cc4)sc3c2)ccn1 | 64.1
CNC(=O)c1cc(Oc2ccc3nc(NC(=O)c4cccc(F)n4)sc3c2)ccn1 | 100

System: K562
Test: Antiproliferative activity against human K562 cells assessed as cell growth at 10^-5 M after 48 hrs by sulforhodamine B assay
Assay type: functional
Settings: K562, 48 h, read-out: Activity

SMILES | growth at 10 µM [%]
CNC(=O)c1cc(Oc2ccc3nc(NC(=O)Nc4ccc(Cl)cc4)sc3c2)ccn1 | 65.6
CNC(=O)c1cc(Oc2ccc3nc(NC(=O)c4cccc(F)n4)sc3c2)ccn1 | 77.5

System: NCI-H23
Test: Antiproliferative activity against human NCI-H23 cells assessed as cell growth at 10^-5 M after 48 hrs by sulforhodamine B assay
Assay type: functional
Settings: NCI-H23, 48 h, read-out: Activity

SMILES | growth at 10 µM [%]
CNC(=O)c1cc(Oc2ccc3nc(NC(=O)Nc4ccc(Cl)cc4)sc3c2)ccn1 | 69
CNC(=O)c1cc(Oc2ccc3nc(NC(=O)c4cccc(F)n4)sc3c2)ccn1 | 83

System: not listed separately
Test: Antiproliferative activity against human OVCAR5 cells assessed as cell growth at 10^-5 M after 48 hrs by sulforhodamine B assay
Assay type: functional
Settings: OVCAR-5, 48 h, read-out: Activity

SMILES | growth at 10 µM [%]
CNC(=O)c1cc(Oc2ccc3nc(NC(=O)Nc4ccc(Cl)cc4)sc3c2)ccn1 | 92.3
CNC(=O)c1cc(Oc2ccc3nc(NC(=O)c4cccc(F)n4)sc3c2)ccn1 | 128

System: not listed separately
Test: Antiproliferative activity against human SF295 cells assessed as cell growth at 10^-5 M after 48 hrs by sulforhodamine B assay
Assay type: functional
Settings: SF-295, 48 h, read-out: Activity

SMILES | growth at 10 µM [%]
CNC(=O)c1cc(Oc2ccc3nc(NC(=O)Nc4ccc(Cl)cc4)sc3c2)ccn1 | 66.3
CNC(=O)c1cc(Oc2ccc3nc(NC(=O)c4cccc(F)n4)sc3c2)ccn1 | 89.1

System: U-251
Test: Antiproliferative activity against human U251 cells assessed as cell growth at 10^-5 M after 48 hrs by sulforhodamine B assay
Assay type: functional
Settings: U-251, 48 h, read-out: Activity

SMILES | growth at 10 µM [%]
CNC(=O)c1cc(Oc2ccc3nc(NC(=O)Nc4ccc(Cl)cc4)sc3c2)ccn1 | 37.3
CNC(=O)c1cc(Oc2ccc3nc(NC(=O)c4cccc(F)n4)sc3c2)ccn1 | 79.9

System: SK-MEL-5
Test: Antiproliferative activity against human SK-MEL-5 cells assessed as cell growth at 10^-5 M after 48 hrs by sulforhodamine B assay
Assay type: functional
Settings: SK-MEL-5, 48 h, read-out: Activity

SMILES | growth at 10 µM [%]
CNC(=O)c1cc(Oc2ccc3nc(NC(=O)Nc4ccc(Cl)cc4)sc3c2)ccn1 | 73.3
CNC(=O)c1cc(Oc2ccc3nc(NC(=O)c4cccc(F)n4)sc3c2)ccn1 | 71.8

System: MDA-MB-468
Test: Antiproliferative activity against human MDA-MB-468 cells assessed as cell growth at 10^-5 M after 48 hrs by sulforhodamine B assay
Assay type: functional
Settings: MDA-MB-468, 48 h, read-out: Activity

SMILES | growth at 10 µM [%]
CNC(=O)c1cc(Oc2ccc3nc(NC(=O)Nc4ccc(Cl)cc4)sc3c2)ccn1 | 55.1
CNC(=O)c1cc(Oc2ccc3nc(NC(=O)c4cccc(F)n4)sc3c2)ccn1 | 71.3
